Assay results published in patent US20260103760A1, “ANALYTIC METHOD FOR DIAGNOSING OVARIAN CANCER RESISTANT TO PACLITAXEL” (CHA UNIVERSITY INDUSTRY-ACADEMIC COOPERATION FOUNDATION, priority 2022, published 2026).

Test system: Taxol-resistant ovarian cancer cell line SKOV3/TAX compared to ovarian cancer cell line SKOV3
Experiment: Cell viability of SKOV3 and SKOV3/TAX cultured in medium containing Taxol (cell counting kit-8)
Type: cell-based
Settings: medium containing 30 μM Taxol, FIG. 1
Method: Ovarian cancer cell line SKOV3 (HTB-77™, Sigma-Aldrich, St. Louis, MO, USA) was cultured in a DMEM medium (31800-022, Gibco, Grand Island, NY, USA) containing 5 μM Taxol, 10% FBS and 1% Antibiotic-Antimycotic (15240062, Gibco, Grand Island, NY, USA) at 37° C. in a 5% CO2 incubator for 1 month. The cells were harvested and cultured continuously in a 5% CO2 incubator at 37° C., in a medium containing 10 µM Taxol for 2 months, in a medium containing 20 µM Taxol for 2 months, and in a medium containing 30 μM Taxol for 2 months (total for 7 months), and then the viable cell line was isolated. The isolated cell line was named SKOV3/TAX and the following experiments were performed using as an ovarian cancer cell line resistant to Taxol. In order to compare Taxol resistance, the SKOV3 and SKOV3/TAX cells were cultured at 5,000 cells per well in a 96-well plate in a medium containing Taxol at a concentration of 30 μM per well. Then, cell viabilities were measured at 0, 24, and 48 hours with a cell counting kit-8 (CK04-11, Dojindo, Rockville, MD, USA).

## CC(=O)O[C@H]1C(=O)[C@@]2(C)[C@H]([C@H](OC(=O)c3ccccc3)[C@]3(O)C[C@H](OC(=O)[C@H](O)[C@@H](NC(=O)c4ccccc4)c4ccccc4)C(C)=C1C3(C)C)[C@]1(OC(C)=O)CO[C@@H]1C[C@@H]2O [Taxol, paclitaxel]
24 hours, 5,000 cells per well
  cell viability of SKOV3/TAX compared to SKOV3 (increase): approximately 1.67 fold
48 hours, 5,000 cells per well
  cell viability of SKOV3/TAX compared to SKOV3 (increase): approximately 2.40 fold
